Results taken from patent publication US20200222474A1, “COMPOSITIONS AND METHODS FOR INCREASING PHYTOCHEMICAL BIOAVAILABLITY AND BIOACTIVITY” (North Carolina State University, priority 2017, published 2020).

Tested on: L. acidophilus NCFM
Assay: RNA-seq transcriptional analysis of L. acidophilus NCFM growing on plant glycosides
Type: cell-based, Lactobacillus acidophilus
[1] = LBA1955 Transcription regulator family protein, COG K
[2] = gene LBA0046 (Hypothetical protein)
[3] = gene LBA0149 (Putative nucleotide-binding protein)
[4] = gene LBA0263 (Hypothetical protein)
[5] = gene LBA0282 (Hypothetical protein)
[6] = gene LBA0327 (Replication protein)
[7] = gene LBA0328 (Hypothetical protein)
[8] = gene LBA0330 (Hypothetical protein)
[9] = gene LBA0457 (Hypothetical protein)
[10] = gene LBA0485 (Hypothetical protein)
[11] = gene LBA0486 (Hypothetical protein)
[12] = gene LBA0487 (Hypothetical protein.)
[13] = gene LBA0492 (Hypothetical protein)
[14] = gene LBA0541 (Cadmium-transporting ATPase)
[15] = gene LBA0542 (Putative heavy-metal-transporting alpase)
[16] = gene LBA0543 (Hypothetical protein)
[17] = gene LBA0544 (Transcriptional regulator)
[18] = gene LBA0555 (Myosin-crossreactive antigen)
[19] = gene LBA0564 (HAD family hydrolase)
[20] = gene LBA0574 (ABC multi drug exporter)
[21] = gene LBA0575 (ABC multi drug exporter)
[22] = gene LBA0604 (Immunity protein)
[23] = gene LBA0605 (Putative hydrolase)
[24] = gene LBA0608 (Hypothetical protein)
[25] = gene LBA0631 (Hypothetical protein)
[26] = gene LBA0649 (Myosin-crossreactive antigen)
[27] = gene LBA0728 (Hypothetical protein LBA0728)
[28] = gene LBA1025 (Aldo/keto reductase family oxidoreductase)
[29] = gene LBA1026 (Aldo/keto reduetase family oxidoreductase)
[30] = gene LBA1206 (Hypothetical protein)
[31] = gene LBA1401 (Peroxidase (Npx))
[32] = gene LBA1435 (Hypothetical protein)
[33] = gene LBA1455 (Putative surface layer protein)
[34] = gene LBA1656 (Hypothetical protein)
[35] = gene LBA1675 (Hypothetical protein)
[36] = gene LBA1676 (ATP-dependent helicase)
[37] = gene LBA1683 (Putative magnesium-transporting atpase)
[38] = gene LBA1704 (N-Acetylmuramic acid-6-phosphate etherase)
[39] = gene LBA1740 (Hypothetical protein)
[40] = gene LBA1752 (Hypothetical protein)
[41] = gene LBA1769 (Hypothetical protein)
[42] = gene LBA1793 (Hypothetical protein)
[43] = gene LBA1869 (Beta-phosphoglueomutase)
[44] = gene LBA1895 (Hypothetical protein)

SMILES: OC[C@H]1O[C@@H](O[C@H]2[C@H](O)[C@@H](O)[C@@H](O)O[C@@H]2CO)[C@H](O)[C@@H](O)[C@H]1O [Lac]
- Log2 differential normalized TPM ratio compared to glucose (LBA1878 Glycerol kinase, COG C): 0
- Transcripts per million (rpm) (LBA1878 Glycerol kinase, COG C): 8.9 rpm
- Log2 differential normalized TPM ratio compared to glucose [1]: −0.4
- Transcripts per million (rpm) [1]: 403.9 rpm
- Log2 differential normalized TPM ratio compared to glucose [2]: 0.7
- Transcripts per million (rpm) [2]: 506.3 rpm
- Log2 differential normalized TPM ratio compared to glucose [3]: 0.8
- Transcripts per million (rpm) [3]: 850.2 rpm
- Log2 differential normalized TPM ratio compared to glucose [4]: 0.7
- Transcripts per million (rpm) [4]: 27 rpm
- Log2 differential normalized TPM ratio compared to glucose [5]: 0.6
- Transcripts per million (rpm) [5]: 32.7 rpm
- Log2 differential normalized TPM ratio compared to glucose [6]: 0.2
- Transcripts per million (rpm) [6]: 9.5 rpm
- Log2 differential normalized TPM ratio compared to glucose [7]: −0.1
- Transcripts per million (rpm) [7]: 13.2 rpm
- Log2 differential normalized TPM ratio compared to glucose [8]: 0.3
- Transcripts per million (rpm) [8]: 26.6 rpm
- Log2 differential normalized TPM ratio compared to glucose [9]: 1
- Transcripts per million (rpm) [9]: 977.4 rpm
- Log2 differential normalized TPM ratio compared to glucose [10]: 2.4
- Transcripts per million (rpm) [10]: 1078 rpm
- Log2 differential normalized TPM ratio compared to glucose [11]: 2.8
- Transcripts per million (rpm) [11]: 1593.4 rpm
- Log2 differential normalized TPM ratio compared to glucose [12]: 1.3
- Transcripts per million (rpm) [12]: 82.6 rpm
- Log2 differential normalized TPM ratio compared to glucose [13]: 2.4
- Transcripts per million (rpm) [13]: 44.2 rpm
- Log2 differential normalized TPM ratio compared to glucose [14]: 2
- Transcripts per million (rpm) [14]: 167.4 rpm
- Log2 differential normalized TPM ratio compared to glucose [15]: 2.2
- Transcripts per million (rpm) [15]: 409.6 rpm
- Log2 differential normalized TPM ratio compared to glucose [16]: 2.3
- Transcripts per million (rpm) [16]: 345.9 rpm
- Log2 differential normalized TPM ratio compared to glucose [17]: 2
- Transcripts per million (rpm) [17]: 416.6 rpm
- Log2 differential normalized TPM ratio compared to glucose [18]: 1.9
- Transcripts per million (rpm) [18]: 165.8 rpm
- Log2 differential normalized TPM ratio compared to glucose [19]: 0.5
- Transcripts per million (rpm) [19]: 1.5 rpm
- Log2 differential normalized TPM ratio compared to glucose [20]: 0.3
- Transcripts per million (rpm) [20]: 109.5 rpm
- Log2 differential normalized TPM ratio compared to glucose [21]: 0.2
- Transcripts per million (rpm) [21]: 93 rpm
- Log2 differential normalized TPM ratio compared to glucose [22]: 0.5
- Transcripts per million (rpm) [22]: 20.8 rpm
- Log2 differential normalized TPM ratio compared to glucose [23]: 1
- Transcripts per million (rpm) [23]: 5.5 rpm
- Log2 differential normalized TPM ratio compared to glucose [24]: 1.1
- Transcripts per million (rpm) [24]: 75.1 rpm
- Log2 differential normalized TPM ratio compared to glucose [25]: 3.1
- Transcripts per million (rpm) [25]: 10677.4 rpm
- Log2 differential normalized TPM ratio compared to glucose [26]: 0.7
- Transcripts per million (rpm) [26]: 65.3 rpm
- Log2 differential normalized TPM ratio compared to glucose [27]: 1.8
- Transcripts per million (rpm) [27]: 8.5 rpm
- Transcripts per million (rpm) (gene LBA0802 (Hypothetical protein)): 40.6 rpm
- Log2 differential normalized TPM ratio compared to glucose (gene LBA0861 (Polyferredoxin)): 0.5
- Transcripts per million (rpm) (gene LBA0861 (Polyferredoxin)): 272.1 rpm
- Log2 differential normalized TPM ratio compared to glucose (gene LBA1023 (Oxidoreductase)): 0.3
- Transcripts per million (rpm) (gene LBA1023 (Oxidoreductase)): 213.6 rpm
- Log2 differential normalized TPM ratio compared to glucose [28]: 0
- Transcripts per million (rpm) [28]: 31.7 rpm
- Log2 differential normalized TPM ratio compared to glucose [29]: 0.4
- Transcripts per million (rpm) [29]: 43.3 rpm
- Log2 differential normalized TPM ratio compared to glucose (gene LBA1027 (Oxidoreductase)): 1.5
- Transcripts per million (rpm) (gene LBA1027 (Oxidoreductase)): 1733.7 rpm
- Log2 differential normalized TPM ratio compared to glucose [30]: 1.2
- Transcripts per million (rpm) [30]: 302.8 rpm
- Log2 differential normalized TPM ratio compared to glucose [31]: 2.1
- Transcripts per million (rpm) [31]: 294.6 rpm
- Log2 differential normalized TPM ratio compared to glucose [32]: 3.7
- Transcripts per million (rpm) [32]: 57.4 rpm
- Log2 differential normalized TPM ratio compared to glucose [33]: 1.6
- Transcripts per million (rpm) [33]: 53.4 rpm
- Log2 differential normalized TPM ratio compared to glucose (gene LBA1469 (UDP-glucose 4-epimerase)): 5
- Log2 differential normalized TPM ratio compared to glucose [34]: 0.6
- Transcripts per million (rpm) [34]: 30.6 rpm
- Log2 differential normalized TPM ratio compared to glucose [35]: 1.4
- Transcripts per million (rpm) [35]: 1127.6 rpm
- Log2 differential normalized TPM ratio compared to glucose [36]: 1.2
- Transcripts per million (rpm) [36]: 734.7 rpm
- Log2 differential normalized TPM ratio compared to glucose [37]: −0.2
- Transcripts per million (rpm) [37]: 14 rpm
- Log2 differential normalized TPM ratio compared to glucose [38]: 0.6
- Transcripts per million (rpm) [38]: 10.7 rpm
- Log2 differential normalized TPM ratio compared to glucose [39]: 0.8
- Transcripts per million (rpm) [39]: 31.5 rpm
- Log2 differential normalized TPM ratio compared to glucose [40]: 0.8
- Transcripts per million (rpm) [40]: 15.3 rpm
- Log2 differential normalized TPM ratio compared to glucose [41]: 1.9
- Transcripts per million (rpm) [41]: 5636.3 rpm
- Log2 differential normalized TPM ratio compared to glucose [42]: 2.8
- Transcripts per million (rpm) [42]: 117.6 rpm
- Log2 differential normalized TPM ratio compared to glucose (gene LBA1796 (ABC exporter)): 2.5
- Transcripts per million (rpm) (gene LBA1796 (ABC exporter)): 52.4 rpm
- Log2 differential normalized TPM ratio compared to glucose [43]: 2.4
- Transcripts per million (rpm) [43]: 43.9 rpm
- Log2 differential normalized TPM ratio compared to glucose [44]: 0.2
- Transcripts per million (rpm) [44]: 31.9 rpm
